Here are results for 8 compounds from ChEMBL document CHEMBL1201862, “PubChem BioAssay data set” (2004).

Test systems include A549; ACHN; OVCAR-5; RXF 393; NCI-H23; K562; NCI-H460; RPMI-8226; HCT-15; A498; UACC-257; 786-0; HCC 2998; OVCAR-3; SF-539; UACC-62; TK-10; SNB-75.
Common to all, as to assay: NCI anticancer screen, dose series, 48 h

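1) Cells in 96-well plates. 2) Compound, 48 h, 5 concentrations. 3) Linear interpolation between surrounding doses. 4) Unreached endpoint = highest concentration. GI50 marks 50% less growth.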 The source made the active and inactive calls. Rule as the data show it: active = GI50 up to about 1.1 µM and inactive = higher. Where only a bound is given, the exact number is not on record here.

For `Oc1cc(O)c2c(-c3c(O)c(-c4ccc(O)c(O)c4)[o+]c4cc(O)cc(O)c34)c(O)c(-c3ccc(O)c(O)c3)[o+]c2c1`, the GI50 was 48.2 µM (inactive) with A549; 21.7 µM (inactive) in the experiment on ACHN; > 100 µM (inactive) with OVCAR-5; 35.9 µM (inactive) with RXF 393; 40.3 µM (inactive) in the experiment on NCI-H23; > 10 µM (inactive) with K562. For the same compound, the GI50 in the experiment with NCI-H460 was 21.5 µM (inactive); in the experiment on RPMI-8226, 63 µM (inactive); with HCT-15, 41.8 µM; with A498 it was 38.5 µM (inactive); in the experiment on UACC-257 it was > 100 µM (inactive); in the experiment on 786-0, 35.5 µM (inactive). Moreover, the GI50 was 39.2 µM (inactive) in the experiment with HCC 2998; 20.7 µM (inactive) with OVCAR-3; 25.6 µM (inactive) with SF-539; 22.6 µM (inactive) in the experiment with UACC-62; 61.5 µM (inactive) with TK-10; 24 µM (inactive) with SNB-75.
Consider `NC1=NC2=c3ccccc3=C(c3cnccn3)C2(c2cnccn2)c2ccccc21` (centres undefined), for which the GI50 in the experiment with A549 is 45.7 µM (inactive); with ACHN it was 64.4 µM (inactive); in the experiment on OVCAR-5, > 100 µM (inactive); with RXF 393, > 100 µM (inactive); in the experiment on NCI-H23, 91.4 µM (inactive); in the experiment with K562, 66.5 µM (inactive). Besides, the GI50 is 58.6 µM (inactive) in the experiment with NCI-H460; 58.7 µM (inactive) with RPMI-8226; more than 100 µM in the experiment with HCT-15; 18.2 µM (inactive) in the experiment with A498; 37.1 µM (inactive) in the experiment on UACC-257; > 100 µM (inactive) with 786-0. The GI50 in the experiment on HCC 2998 was > 100 µM (inactive); in the experiment on OVCAR-3, 13.8 µM (inactive); in the experiment with SF-539 it was 80.5 µM (inactive); with UACC-62, > 100 µM (inactive); in the experiment on TK-10 it was 87.9 µM (inactive); in the experiment on SNB-75, 39.6 µM (inactive).
In the case of `CN=[S+]([O-])(c1ccccc1)c1ccccc1`, the GI50 in the experiment with A549, in the experiment with ACHN, with OVCAR-5, with RXF 393, in the experiment on NCI-H23 and in the experiment on K562 was > 100 µM (inactive) throughout. In addition, the GI50 in the experiment with NCI-H460 is > 100 µM (inactive); with RPMI-8226 it was > 100 µM (inactive); with HCT-15, more than 100 µM; in the experiment with A498, > 100 µM (inactive); with UACC-257, > 100 µM (inactive); in the experiment on 786-0 it was > 100 µM (inactive). For the same compound, the GI50 in the experiment on HCC 2998 is > 100 µM (inactive); with OVCAR-3, > 100 µM (inactive); with SF-539 it was > 100 µM (inactive); with UACC-62 it was > 100 µM (inactive); in the experiment on TK-10 it was > 100 µM (inactive); in the experiment on SNB-75, 96.8 µM (inactive).
In the case of `COc1ccccc1C(O)(c1ccccc1)C(O)(c1ccccc1)c1ccccc1OC` (centres undefined), the GI50 in the experiment on A549, in the experiment on ACHN, in the experiment on OVCAR-5, with RXF 393, in the experiment with NCI-H23 and in the experiment on K562 was > 100 µM (inactive) in each case. In addition, the GI50 is > 100 µM (inactive) in the experiment on NCI-H460; > 24.4 µM (inactive) in the experiment with RPMI-8226; more than 100 µM with HCT-15; > 100 µM (inactive) in the experiment with A498; > 100 µM (inactive) in the experiment with UACC-257; > 100 µM (inactive) with 786-0. Moreover, the GI50 was > 100 µM (inactive) in the experiment with HCC 2998; > 100 µM (inactive) with OVCAR-3; > 100 µM (inactive) with SF-539; > 100 µM (inactive) with UACC-62; > 100 µM (inactive) in the experiment with TK-10; 41.6 µM (inactive) in the experiment on SNB-75.
For `COc1cc([C@@H]2c3cc4c(cc3[C@@H](OC(=O)c3cccc(N)c3)C3COC(=O)[C@@H]32)OCO4)cc(OC)c1O` (some centres undefined), the GI50 in the experiment on A549 is 1.63 µM (inactive); in the experiment on ACHN, 1.96 µM (inactive); with OVCAR-5 it was 17.9 µM (inactive); in the experiment on RXF 393, 0.632 µM (active); in the experiment with NCI-H23 it was 1.19 µM (inactive); in the experiment with K562, 2.02 µM (inactive). Also, the GI50 in the experiment on NCI-H460 was 0.671 µM (active); with RPMI-8226, 3.86 µM (inactive); in the experiment on HCT-15 it was 13.3 µM; with A498, 0.649 µM (active); with UACC-257, 5.69 µM (inactive); in the experiment with 786-0, 2.49 µM (inactive). For the same compound, the GI50 in the experiment on HCC 2998 is 9.93 µM (inactive); with OVCAR-3, 34.6 µM (inactive); in the experiment with SF-539 it was 0.621 µM (active); in the experiment on UACC-62 it was 0.667 µM (active); in the experiment on TK-10 it was 59.3 µM (inactive); in the experiment on SNB-75 it was 5.36 µM (inactive).
As to `NC(=S)N/N=C(\CCC(=O)Nc1ccccc1[N+](=O)[O-])CC(=O)c1ccco1`, the GI50 with A549, in the experiment on ACHN, in the experiment on OVCAR-5, in the experiment on RXF 393, with NCI-H23 and in the experiment on K562 was > 100 µM (inactive) throughout. Further, the GI50 was > 100 µM (inactive) in the experiment on NCI-H460; > 100 µM (inactive) in the experiment with RPMI-8226; more than 100 µM in the experiment on HCT-15; 49.3 µM (inactive) with A498; > 100 µM (inactive) in the experiment on UACC-257; > 100 µM (inactive) in the experiment with 786-0. Moreover, the GI50 with HCC 2998, with OVCAR-3, in the experiment with SF-539, with UACC-62, in the experiment with TK-10 and in the experiment with SNB-75 was > 100 µM (inactive) throughout.
For the compound `Cc1ccc(/N=N/c2c(C)nn(-c3ccccc3)c2C)c(Br)c1`, the GI50 with A549 was > 100 µM (inactive); with ACHN, > 100 µM (inactive); with OVCAR-5, > 100 µM (inactive); with RXF 393, 54 µM (inactive); with NCI-H23, > 100 µM (inactive); in the experiment with K562, 27.3 µM (inactive). Besides, the GI50 in the experiment on NCI-H460 is 62.8 µM (inactive); in the experiment on RPMI-8226 it was 36 µM (inactive); in the experiment with HCT-15, 36 µM; with A498, > 100 µM (inactive); in the experiment with UACC-257 it was 89.7 µM (inactive); with 786-0, > 100 µM (inactive). Also, the GI50 is > 100 µM (inactive) with HCC 2998; > 100 µM (inactive) in the experiment with OVCAR-3; > 100 µM (inactive) in the experiment on SF-539; 89.9 µM (inactive) in the experiment on UACC-62; > 100 µM (inactive) in the experiment on TK-10; > 100 µM (inactive) with SNB-75.
For `CN(c1ccccc1)c1c(Cl)c(=O)oc2c1ccc1occc12`, the GI50 was > 100 µM (inactive) with A549; > 100 µM (inactive) with ACHN; > 100 µM (inactive) in the experiment on OVCAR-5; > 100 µM (inactive) with RXF 393; > 100 µM (inactive) in the experiment on NCI-H23; 51.2 µM (inactive) in the experiment on K562. Moreover, the GI50 with NCI-H460 is > 100 µM (inactive); with RPMI-8226, 86.9 µM (inactive); with HCT-15, 74 µM; with A498, > 100 µM (inactive); in the experiment with UACC-257 it was > 100 µM (inactive); in the experiment on 786-0, > 100 µM (inactive). For the same compound, the GI50 in the experiment with HCC 2998 is > 100 µM (inactive); with OVCAR-3, > 100 µM (inactive); in the experiment on SF-539 it was > 100 µM (inactive); in the experiment with UACC-62, 40.6 µM (inactive); in the experiment on TK-10, > 100 µM (inactive); in the experiment on SNB-75, > 100 µM (inactive).
